Results reported in patent US6887983B2, “Purified 20 kDA presenilin 2 C-terminal fragment and methods of screening for compounds that inhibit proteolysis of presenilin 2” (The General Hospital Corporation, priority 1997, dated 2005).
Where a SMILES comes first, the peptide text is derived from it. The star is where a group is joined. Cbz = O=C(OCc1ccccc1)*; CH2F = FC*

How the values were obtained:
[1] = tested on: endogenous PS2 cleavage in H4 human neuroglioma cells; experiment: Apoptotic cleavage of endogenous PS2 in untransfected H4 cells (staurosporine or etoposide), Western blot
Protocol: H4 human neuroglioma cells were treated with 1 μM STS for timed intervals indicated on the top panels and lysates were analyzed by Western blotting using αPS2Loop along with antibodies to poly(ADP-ribose) polymerase (PARP), CPP32, and HSP70. […] Cells were pre-treated with inhibitors for 1 hour, further incubated in the presence or absence of 2 μM STS (b) or 20 μM etoposide for 18 hours. and lysates were analyzed by Western blotting. […] (e) Dose-response curves of the effect of zVAD-fmk (Δ) and zDEVD-fmk (o) on STS-induced apoptotic cleavage of PS2. Relative amounts of 20 kDa PS2 fragments from the cells co-treated with 1 μM STS (18 hours) plus either zVAD-fmk or zDEVD-fmk were measured by the transmittance analysis of the Western blot as described (Bush, A. I., et al., Ann. Neurol. 32:57-65 (1992)). The amounts of 20 kDa fragment from the cells treated with STS alone were standardized as 100%. With the exception of (d) (4-20% gradient gel), all SDS-PAGE were performed using 16% gels.
(§2) For some experiments, protein quantitation, SDS-PAGE (4-20% or 16%) and Western blotting were carried out as described, supra, with the exception of using the lysis buffer (10 mM Tris-HCl [pH 7.4], 150 mM NaCl, 1% Triton X-100, 0.5% NP-40, 5 mM EDTA plus either 0.3% SDS or 1% Sarkosyl) with protease inhibitors, allowing for the efficient extraction of the 20 kDa C-terminal fragment from the detergent-resistant fractions.

[2] = tested on: generation of alternative 14 kDa PS1-CTF; experiment: Generation of alternative 14 kDa PS1-CTF in inducible H4 cells overexpressing PS1; format: cell-based, human; conditions: PS1-overexpressing cell lines
Protocol: FIG. 11. […] Inducible PS1 cells were generated similar to as described herein. High-(clone 1.22) and low-(clone 1.24) expressing clones were grown in the presence or absence of tetracycline for 24 hours. As similar to those shown for PS2, multiple PS1 CTFs were detected in the PS 1-overproducing cells, including 23 kDa endogenous PS1 CTF (arrow e′), transgene-derived normal cleavage product (arrow f′), and aberrant 14 kDa PS1 fragment. (b, c, d) Cleavage of endogenous PS1 CTF during STS-induced apoptosis. Identical samples used for FIG. 8 were stained with αPS1 Loop. PS1 CTF was further cleaved into smaller 14 kDa fragment during apoptotic process. […] Asterisk indicates non-specific bands.
The point mutations in the potential aspartate cleavage sites of PS2 (D326A and D329A) and control aspartate (D308A) were introduced into a PS2 open reading frame by site-directed mutagenesis using Muta-Gene phagemid kit (BioRad). The inducible construct encoding the full-length PS1 with 3′ FLAG epitope sequence was generated as described for PS2 herein. […]
Next, whether PS1, a closely related homologue of PS2, also undergoes alternative cleavage when overexpressed and/or during apoptosis was tested. […] However, in the clonal cell line expressing lower levels of PS1 (clone IF24), full-length PS1 and the normal CTF were predominantly detected while the alternative 14 kDa CTF fragment was not detectable.

[3] = tested on: generation of the 20 kDa PS2-CTF; experiment: Generation of 20 kDa PS2-CTF in H4 cells overexpressing PS2, Western blot with αPS2Loop; conditions: FIG. 7d; for generation of the 20 kDa PS2-CTF: cells overexpressing PS2, induced 24 h, inhibitor added at induction
Protocol: Aberrant 20 kDa PS2 C-terminal fragment (CTF) in transfected cells. (a) Detection of the endogenous PS2 CTF in human brain. […] (b) Detection of multiple PS2 CTFs in the inducible H4 cells overexpressing C-terminal epitope-tagged PS2 by Western blotting using αPS2Loop. […] (c) Selective localization of the 20 kDa CTF in the non-ionic detergent-resistant cellular fraction. Wild-type PS2 cells were induced for 48 hours, fractionated into detergent-insoluble/resistant (lane 2) and detergent soluble (lane 3) fractions and wash (lane 4), and then analyzed by Western blotting with αPS2Loop. Total SDS lysates are shown in lane 1. […] The zFA-fmk (cathepsin B inhibitor) was used as a control for fluoromethylketone (fmk) group. […] Inducible PS2 were grown in the presence (Uninduced, left panel) or absence (Induced, right panel) of tetracycline for 24 hours, and inhibitors or solvent (DMSO) were added at the time of the induction.
as §2

[4] = tested on: endogenous PS1 cleavage; experiment: Apoptosis-associated cleavage of endogenous PS1 in H4 cells; format: cell-based, human; conditions: STS- or etoposide-induced, FIGS. 11c and 11d
Protocol: FIG. 11. […] Inducible PS1 cells were generated similar to as described herein. High-(clone 1.22) and low-(clone 1.24) expressing clones were grown in the presence or absence of tetracycline for 24 hours. […] Identical samples used for FIG. 8 were stained with αPS1 Loop. […] Asterisk indicates non-specific bands.
Whether endogenous PS1 is cleaved by CP32-like proteases following induction of apoptosis was also tested.

[5] = tested on: full-length 54 kDa PS2 cleavage; experiment: Cleavage of full-length PS2 during etoposide-induced apoptosis in inducible H4 cells (N-terminal FLAG PS2); format: cell-based, human; conditions: increasing concentrations of inhibitor, 20 μM etoposide; FIG. 8
Protocol: FIG. 8. Cleavage of full-length 54 kDa PS2 by a zVAD-sensitive protease activated during etoposide-induced apoptosis. Inducible H4 cells expressing PS2 containing N-terminal FLAG epitope were induced for 12 hours and further incubated with media containing 20 μM etoposide. Alternative (34 kDa NTF) and normal (f; 30 kDa) N-terminal cleavage products detected by anti-FLAG antibody and alternative (20K CTF) and endogenous plus normal C-terminal cleavage products (e/f) detected by αPS2Loop were indicated by arrows.
Thus, whether the alternative PS2-CTF was generated from full-length 54 kDa PS2 during apoptosis was tested. […] The alternative NTF was 34 kDa while the “normal” NTF, labeled as band f in the top panel of FIG. 8, was 30 kDa. The alternative PS2 cleavage fragments were first observed at 3 hours post-treatment with etoposide.

[6] = tested on: polyubiquitinated HMW-PS2; experiment: Nickel affinity chromatography of PS2 modified with His-tagged ubiquitin, anti-PS2Loop blot; format: cell-based, human; conditions: induced cells treated with ALLN
Protocol: (§1) FIG. 5. Polyubiquitination and proteasomal degradation of PS2. […] Detergent-soluble (Soluble) and detergent-resistant fractions (Insoluble) were prepared and analyzed by Western blotting. FIG. 5B) immunoprecipitation of ubiquitin-positive high molecular weight forms of PS2 (HMW-PS2) by anti-FLAG antibodies. […] FIG. SC) binding of PS2 modified with epitope-tagged ubiquitin (H6M-Ub) to nickel affinity columns. Plasmid pCW7 encoding wild-type (H6M-Ub) or pCW8 encoding dominant-negative ubiquitin (H6M-UbK48R) was transiently transfected into uninduced PS2 cells (clone WF2). […] Lysates were subjected to nickel affinity chromatography as described herein and bound materials were analyzed by Western blotting using anti-PS2Loop antibodies.
PS2 cells were transiently transfected with ubiquitin constructs either pCW7 (H6M-Ub) or pCW8 (H6M-UbK48R) using LipofectAMINE™ according to the manufacturer's instruction (LifeTtechnologies, Inc.). […] Samples were concentrated by freeze-drying, and PS2 immunoreactivity was detected by Western blotting using anti-PS2Loop antibodies.
To determine whether polyubiquitinated HMW-PS2 serves as a degradation intermediate for the full-length PS2, constructs encoding wild-type (H6M-Ub) and dominant-negative ubiquitin (H6M-UbK48R), tagged with poly((6X)-histidine) were transiently transfected into uninduced cells. […]

[7] = tested on: polyubiquitinated PS2; experiment: Immunoprecipitation of ubiquitin-positive HMW-PS2 with anti-FLAG, anti-ubiquitin immunoblot; format: cell-based, human; conditions: 50 μM ALLN; C-terminal FLAG PS2; FIG. 5B
Protocol: as §1
Protein samples were quantiated by the BCA protein assay kit (Pierce). SDS-PAGE was carried out using 4-20% gradient Tris-glycine gels under reducing conditions. Proteins were transferred to polyvinylidene difluoride membrane (Bio-Rad) using a semi-dry electrotransfer system (Hoefer). The blots were blocked with 5% non-fat dry milk in TBST (25 mM Tris (pH 7.6), 137 mM NaCl, 0.15% Tween 20) for 1.5 h, incbated primary antibodies (M2, 3 μg/ml; D-8, 1 to 1000; polyclonal anti-ubiquitin, 1 to 1000; Ubi-1, 1 to 1500) for 1.5 h, and secondary antibodies (horseradish perodixase-conjugated anti-mouse or rabbit antibodies, 1 to 5000) in TBST. […]

| Molecule | concentration equally effective in inhibiting apoptosis-induced cleavage of PS2 ([1]; 1 μM STS 18 h, relative amount of 20 kDa fragment, FIG. 9e) [µM] | normal processing of PS2 (generation of 25 kDa endogenous fragment) ([1]; H4 cells undergoing apoptosis) | STS-induced or etoposide-induced cleavage of PS2, PARP, and pro-CPP32 ([1]; H4 cells, 2 μM STS or 20 μM etoposide 18 h, FIG. 9b, c) | alternative cleavage of endogenous PS2 during staurosporine-induced or etoposide-induced apoptosis ([1]; H4 cells, inhibitor pre-treatment 1 h, 2 μM STS or 20 μM etoposide 18 h, FIGS. 9b-9d) | generation of alternative 14 kDa PS1-CTF [2] | generation of the 20 kDa PS2-CTF [3] | generation of the 20 kDa PS2-CTF ([3]; listed as zVAD) | levels of the endogenous 25 kDa CTF, the 26 kDa transgene-derived CTF, or other PS2 species ([3]; cells overexpressing PS2) | apoptosis-associated cleavage of endogenous PS1 [4] | apoptosis-associated cleavage of endogenous PS1 ([4]; listed as zVAD) | generation of both alternative PS2 cleavage products [5] | polyubiquitinated HMW-PS2 bound to nickel column ([6]; transfected with H6M-Ub, FIG. 5C lane 10) | polyubiquitinated HMW-PS2 bound to nickel column ([6]; transfected with dominant-negative H6M-UbK48R, FIG. 5C lane 12) | Ubiquitin-positive HMW-PS2 [7] |
| --- | --- | --- | --- | --- | --- | --- | --- | --- | --- | --- | --- | --- | --- | --- |
| COC(=O)C[C@H](NC(=O)[C@H](C)NC(=O)[C@@H](NC(=O)OCc1ccccc1)C(C)C)C(=O)CF [zVAD-fmk] (Cbz-Val-Ala-Asp(OMe)-CH2F) | 25 | no effect on normal processing of PS2 | Inhibition of STS-induced (b) or etoposide-induced (c) cleavage of PS2, PARP, and pro-CPP32 | specifically blocked | blocked | blocked | blocked the generation of the 20 kDa PS2-CTF | no effect | Inhibition of STS-induced (c) and etoposide-induced (d) PS1 cleavage | blocked | inhibited the generation of both alternative cleavage products | – | – | – |
| N-acetyl-L-leucinal-L-norleucinal [ALLN] | – | – | – | – | – | – | – | – | – | – | – | abundant amounts of polyubiquitinated HMW-PS2 | a small amount of polyubiquitinated HMW-PS2 | significantly increased |
